According to ChEMBL document CHEMBL1152372, “A stabilized demethoxyviridin derivative inhibits PI3 kinase” (Bioorg Med Chem Lett, 2009):

Key:
[1] = target: Phosphatidylinositol 4,5-bisphosphate 3-kinase catalytic subunit alpha isoform (Homo sapiens, UniProt P42336); assay: Inhibition of PI3 kinase
[2] = Stability in PBS at pH 7.4 assessed as half life at 1.5 mM by HPLC in presence of proline; assay type: physicochemical; conditions: buffer, pH 7.4, 1500 µM
[3] = Stability in PBS at pH 7.4 assessed as half life at 1.5 mM by HPLC in presence of NAc-lysine; assay type: physicochemical; conditions: buffer, pH 7.4, 1500 µM
[4] = Stability in RPMI culture media assessed as half life at 1.5 mM by HPLC; assay type: physicochemical; conditions: 1500 µM
[5] = Stability in PBS at pH 7.4 assessed as half life at 1.5 mM by HPLC; assay type: physicochemical; conditions: buffer, pH 7.4, 1500 µM
[6] = Stability in PBS at pH 7.4 assessed as half life at 1.5 mM by HPLC in presence of glycine; assay type: physicochemical; conditions: buffer, pH 7.4, 1500 µM

Chain of Phosphatidylinositol 4,5-bisphosphate 3-kinase catalytic subunit alpha isoform (P42336 whole entry, canonical isoform): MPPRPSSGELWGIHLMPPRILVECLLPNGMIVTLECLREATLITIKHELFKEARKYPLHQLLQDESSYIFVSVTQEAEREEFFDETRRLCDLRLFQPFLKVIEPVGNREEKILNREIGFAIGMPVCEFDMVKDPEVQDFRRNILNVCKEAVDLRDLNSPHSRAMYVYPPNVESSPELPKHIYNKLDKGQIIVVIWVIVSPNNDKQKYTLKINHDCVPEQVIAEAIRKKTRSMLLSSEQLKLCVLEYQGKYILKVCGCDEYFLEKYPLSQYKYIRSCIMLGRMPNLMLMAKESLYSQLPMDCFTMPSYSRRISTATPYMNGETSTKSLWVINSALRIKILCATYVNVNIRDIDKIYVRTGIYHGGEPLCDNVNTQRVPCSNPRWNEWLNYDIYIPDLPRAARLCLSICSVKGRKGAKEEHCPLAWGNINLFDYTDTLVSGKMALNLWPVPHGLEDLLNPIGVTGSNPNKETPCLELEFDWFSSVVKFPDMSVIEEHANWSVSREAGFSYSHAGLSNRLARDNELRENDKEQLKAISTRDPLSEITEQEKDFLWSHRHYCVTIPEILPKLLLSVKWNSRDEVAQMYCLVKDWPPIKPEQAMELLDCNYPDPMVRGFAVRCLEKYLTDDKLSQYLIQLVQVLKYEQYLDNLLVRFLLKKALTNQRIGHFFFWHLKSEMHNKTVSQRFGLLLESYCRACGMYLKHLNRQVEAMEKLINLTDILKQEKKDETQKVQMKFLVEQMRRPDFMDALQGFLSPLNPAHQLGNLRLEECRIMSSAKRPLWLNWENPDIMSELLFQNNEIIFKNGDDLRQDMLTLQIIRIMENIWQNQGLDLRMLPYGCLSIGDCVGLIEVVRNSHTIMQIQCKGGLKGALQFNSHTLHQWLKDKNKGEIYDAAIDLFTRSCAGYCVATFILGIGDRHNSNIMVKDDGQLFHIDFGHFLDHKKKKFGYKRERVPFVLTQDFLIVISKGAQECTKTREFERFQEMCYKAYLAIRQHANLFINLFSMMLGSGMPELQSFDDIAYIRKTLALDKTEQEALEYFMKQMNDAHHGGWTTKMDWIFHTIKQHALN

| Compound | IC50 [1] [nM] | t1/2 [2] [min] | t1/2 [3] [min] | t1/2 [4] [min] | t1/2 [5] [h] | t1/2 [6] [min] |
| --- | --- | --- | --- | --- | --- | --- |
| COC[C@H]1OC(=O)/C(=C\NCCCCC(NC(C)=O)C(=O)O)C2=C(O)C(=O)C3=C([C@H](OC(C)=O)C[C@]4(C)C(=O)CC[C@@H]34)[C@]21C (stereo partly drawn) | > 1000 | – | – | – | – | – |
| COC[C@H]1OC(=O)/C(=C\N2CCCC2C(=O)O)C2=C(O)C(=O)C3=C([C@H](OC(C)=O)C[C@]4(C)C(=O)CC[C@@H]34)[C@]21C (stereo partly drawn) | 68 | – | – | – | – | – |
| C[C@]12C(=C(O)C(=O)c3c1ccc1c3CCC1=O)/C(=C/NCC(=O)O)C(=O)C[C@H]2OC(=O)CCC(=O)O | – | 126 | 94 | 64 | 3.63 | – |
| C[C@@]12c3ccc4c(c3C(=O)c3occ(c31)C(=O)C[C@H]2OC(=O)CCC(=O)O)CCC4=O | 20 | 108 | 23 | 0.43 | 2 | 13.5 |
| C[C@@]12c3ccc4c(c3C(=O)c3occ(c31)C(=O)C[C@H]2O)CCC4=O [DEMETHOXYVIRIDIN] | 1 | 0.59 | 0.61 | 0.47 | 0.433 | 0.99 |
| COC[C@H]1OC(=O)c2coc3c2[C@@]1(C)C1=C(C3=O)[C@@H]2CCC(=O)[C@@]2(C)C[C@H]1OC(C)=O [WORTMANNIN] | – | 1.5 | 18.4 | 0.99 | 57.83 | 4.1 |
